Values of other authors, collected in US20030082102A1, “Radioactive platinum complexes for cancer treatment” (priority 2001, published 2003).
Like-named read-outs stand apart in the source and are kept apart here.

What was measured:
tissue culture = settings: non-radioactive drug with external radiation
[1] = tracer quantities
mammalian cells = settings: for radiopotentiation / potentiation of chemotherapy effectiveness: cell culture, Howell 1994

Compound | Radiation enhancer in vitro? (tissue culture) | radiopotentiation / potentiation of chemotherapy effectiveness (mammalian cells) | further results
N.N.O=C([O-])C1(C(=O)[O-])CCC1.[Pt+2] [Carboplatin, 1,1-Cyclobutanedicarboxylate diamine platinum (II)] | Yes |  | 
CC(C)N.CC(C)N.[Cl-].[Cl-].[OH-].[OH-].[Pt] [Iproplatin, Cis-dichloro,trans-dihydroxybis-isopropylamine platinum (IV)] | Yes |  | 
CC(=O)[O][Pt]([NH2])([Cl])([Cl])([NH]C1CCCCC1)[O]C(C)=O [JM216] | Yes |  | 
[NH2][Pt]([NH2])([Cl])[Cl] [^195mPt-cisplatinum] |  | no potentiation of chemotherapy effectiveness | tumor drug level (tumor uptake) ([1]; intra-arterial infusion, patients with nonresectable hepatoma): 34-55 % of given dose; tumor drug level (tumor uptake) ([1]; intravenous route): < 5 % of given dose; radiotoxicity above and beyond chemical toxicity (mammalian cells; cell culture studies, Howell et al 1994): no radiotoxicity above and beyond its chemical toxicity
N.N.[Cl][Pt+2][Cl] [^195mPt-trans-cisplatinum] |  | showed radiopotentiation | 
